# Test results as given in patent US20250326765A1, “PDE4B INHIBITOR AND USE THEREOF” (XIZANG HAISCO PHARMACEUTICAL CO., LTD., priority 2022, published 2025).
# Legend:
# [1] = target: T1, PDE4D2 (Homo sapiens, UniProt Q08499); assay: Effect of compounds on PDE4D2 activity (fluorescence polarization kit); format: biochemical; details: class symbols
# T1 construct: purchased BPS Bioscience 60345
# Experimental: The effect of compounds on PDE4D2 activity was detected by a fluorescence polarization kit (BPS Bioscience, Catalog #60345). During the reaction, 12.5 μL of 0.272 ng/well of an enzyme (final concentration: 0.068 ng/well) and 12.5 μL of the compound diluted in a gradient manner (DMSO concentration: 4%) were first pre-incubated at room temperature for 15 minutes, the same volume of the enzyme at the same concentration and 12.5 μL of PDE buffer containing 4% DMSO were added to the positive control well, and 25 μL of PDE buffer containing 2% DMSO was added to the negative control well. After completion, 25 μL of […] FAM-Cyclic-3′,5′-AMP (final concentration: […]) was added to each well, fully mixed, and then incubated at room temperature with slow shaking for 30 minutes. The Binding Agent was diluted with the Binding Agent Diluent (cAMP) at a ratio of 1:100 for later use, 100 μl/well of the Binding Agent dilution was taken and added to all wells of the test plate and incubated at room temperature with slow shaking for 1 hour.
# After the incubation was complete, BMG LRBTECH microplate reader was used for FP detection, with Excitation at 485 nm and Emission at 520 nm. FP was usually represented by mP value.
# [formula] • I∥ (S520): fluorescence intensity in parallel direction • I⊥ (P520): fluorescence intensity in perpendicular direction • G: G factor=1
# (§1) [formula] • mP(sample): mP of the test compound in a reaction well • mP(negative control): mP in the negative control well • mP(positive control): mP in the positive control well
# According to the calculated inhibition rate at each concentration, the IC50 value of each compound was calculated by GraphPad Prism 8 software.
# [2] = target: T2, hERG potassium ion channel (Homo sapiens, UniProt Q12809); assay: Test for hERG potassium ion channel (manual patch-clamp, CHO cells); format: cell-based; details: CHO cells stably expressing hERG, whole cell patch-clamp; read-out: IC50, inhibition of hERG potassium channel current
# T2 construct: expressed in transfected cells
# Excerpt: Experimental Platform: Electrophysiological Manual Patch-Clamp System
# Cell line: Chinese hamster ovary (CHO) cell line stably expressing hERG potassium ion channel
# Experimental method: CHO (Chinese Hamster Ovary) cells stably expressing hERG potassium channel were subjected to a whole cell patch-clamp technique to record the hERG potassium channel current at room temperature. The glass microelectrode was made of a glass electrode blank (BF150-86-10, Sutter) by a puller. The tip resistance after filling the liquid in the electrode was about 2-5 MQ. The glass microelectrode can be connected to the patch-clamp amplifier by inserting the glass microelectrode into an amplifier probe. The clamping voltage and data recording were controlled and recorded by the pClamp 10 software through a computer. The sampling frequency was 10 kHz, and the filtering frequency was 2 kHz. After the whole cell records were obtained, the cells were clamped at −80 mV, and the step voltage that induced the hERG potassium current (IhERG) was depolarized from −80 mV to +20 mV for 2 s, then repolarized to −50 mV, and returned to −80 mV after 1 s. This voltage stimulation was given every 10 s, and the administration process was started after the hERG potassium current was confirmed to be stable (at least 1 minute). The compound was administered for at least 1 minute at each test concentration, and at least 2 cells (n: 2) were tested at each concentration.
# Data processing: Data analysis processing was carried out by using pClamp 10, GraphPad Prism 5, and Excel software. The degree of inhibition on the hERG potassium current (peak value of hERG tail current induced at −50 mV) at different compound concentrations was calculated by the following formula:
# [formula] • where Inhibition % represents the percentage inhibition of the compound on the hERG potassium current, and I and Io represent the amplitude of the hERG potassium current after and before administration, respectively.
# Compound IC50 was calculated using GraphPad Prism 5 software by fitting according to the following equation: […]
# [3] = target: T3, PDE4B1 (Homo sapiens, UniProt Q07343); assay: Effect of compounds on PDE4B1 activity (IMAP fluorescence polarization kit); format: biochemical; details: class symbols
# T3 construct: purchased BPS 60041
# Experimental: The IMAP Reaction Buffer containing 0.1% BSA (5×) in the kit was diluted into a 1-fold reaction buffer containing 1 mM DTT. 0.12 nM PDE4B1 (BPS, Cat #60041) was added to the 1-fold reaction buffer to form a 2-fold enzyme solution. 10 μL of the 2-fold enzyme solution was added to wells of a 384-well reaction plate. For the negative control well, 10 μL of the 1-fold reaction buffer was used instead of the enzyme solution. Centrifugation at 1000 rpm for 1 minute and incubation at room temperature for 15 minutes were carried out. 0.2 uM FAM-labeled cAMP (FAM-cAMP, Molecular Device, Cat #R7506) was added to the 1-fold reaction buffer to form a 2-fold substrate solution. 10 μL of the 2-fold substrate solution was added to each well of the 384-well reaction plate. Centrifugation at 1000 rpm for 1 minute was carried out. A reaction was carried out at room temperature for 20 minutes. IMAP Progressive Binding Buffer A (5×), IMAP Progressive Binding Buffer B (5×), and IMAP Progressive Binding Reagent (provided by IMAP FP IPP Explorer Kit) were prepared into a reaction stop solution according to the instructions for use. 60 μL of an […] reaction stop solution was added to each well of the 384-well reaction plate to stop the reaction, and the reaction product was centrifuged at 1000 rpm for 1 minute. Incubation at room temperature in the dark for 60 minutes was carried out. The mP values (Ex480/Em535 (s), Em535 (p)) were read by a microplate reader (Envision).
# FP was usually represented by mP value. mP value for FP measurement=1000*(S−G*P)/(S+G*P) • S: fluorescence intensity in parallel direction • P: fluorescence intensity in perpendicular direction • G: G factor=1
# as §1
# According to the calculated inhibition rate at each concentration, the IC50 value of each compound was calculated by XLFit excel add-in version 5.4.0.8 software.
# Y=Bottom+(Top−Bottom)/(1+(IC50/X)^HillSlope) Fitting formula: […]
# T2 sequence (Q12809 whole entry): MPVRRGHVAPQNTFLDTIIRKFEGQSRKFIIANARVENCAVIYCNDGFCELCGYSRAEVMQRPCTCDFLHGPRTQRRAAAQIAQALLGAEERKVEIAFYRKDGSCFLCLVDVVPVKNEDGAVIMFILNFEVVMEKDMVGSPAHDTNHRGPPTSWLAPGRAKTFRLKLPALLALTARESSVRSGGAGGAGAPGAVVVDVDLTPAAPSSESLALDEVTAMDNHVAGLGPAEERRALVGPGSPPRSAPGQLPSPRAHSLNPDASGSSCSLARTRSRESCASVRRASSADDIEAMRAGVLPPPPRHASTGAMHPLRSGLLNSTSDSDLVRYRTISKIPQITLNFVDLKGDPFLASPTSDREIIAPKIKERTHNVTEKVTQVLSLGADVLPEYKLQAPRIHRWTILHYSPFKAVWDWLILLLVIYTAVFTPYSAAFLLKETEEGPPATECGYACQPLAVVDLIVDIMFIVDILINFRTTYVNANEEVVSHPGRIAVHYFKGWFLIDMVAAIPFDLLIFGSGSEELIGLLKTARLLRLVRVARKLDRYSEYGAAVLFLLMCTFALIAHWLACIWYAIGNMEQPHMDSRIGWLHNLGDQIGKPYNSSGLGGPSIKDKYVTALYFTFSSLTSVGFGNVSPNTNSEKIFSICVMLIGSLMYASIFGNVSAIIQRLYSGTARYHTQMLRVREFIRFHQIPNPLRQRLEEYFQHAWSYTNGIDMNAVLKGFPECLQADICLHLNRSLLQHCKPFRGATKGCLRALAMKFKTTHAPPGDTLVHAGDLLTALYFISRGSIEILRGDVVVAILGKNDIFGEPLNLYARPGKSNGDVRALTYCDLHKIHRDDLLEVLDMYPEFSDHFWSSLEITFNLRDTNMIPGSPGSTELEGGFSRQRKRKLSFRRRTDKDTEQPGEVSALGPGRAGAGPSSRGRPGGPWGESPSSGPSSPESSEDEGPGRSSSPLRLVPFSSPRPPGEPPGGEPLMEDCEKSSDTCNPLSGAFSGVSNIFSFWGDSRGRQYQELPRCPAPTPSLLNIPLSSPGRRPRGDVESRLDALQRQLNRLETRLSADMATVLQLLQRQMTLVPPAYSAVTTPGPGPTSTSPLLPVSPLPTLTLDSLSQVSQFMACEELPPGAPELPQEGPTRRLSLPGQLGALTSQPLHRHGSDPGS
# T1 sequence (Q08499 303-809): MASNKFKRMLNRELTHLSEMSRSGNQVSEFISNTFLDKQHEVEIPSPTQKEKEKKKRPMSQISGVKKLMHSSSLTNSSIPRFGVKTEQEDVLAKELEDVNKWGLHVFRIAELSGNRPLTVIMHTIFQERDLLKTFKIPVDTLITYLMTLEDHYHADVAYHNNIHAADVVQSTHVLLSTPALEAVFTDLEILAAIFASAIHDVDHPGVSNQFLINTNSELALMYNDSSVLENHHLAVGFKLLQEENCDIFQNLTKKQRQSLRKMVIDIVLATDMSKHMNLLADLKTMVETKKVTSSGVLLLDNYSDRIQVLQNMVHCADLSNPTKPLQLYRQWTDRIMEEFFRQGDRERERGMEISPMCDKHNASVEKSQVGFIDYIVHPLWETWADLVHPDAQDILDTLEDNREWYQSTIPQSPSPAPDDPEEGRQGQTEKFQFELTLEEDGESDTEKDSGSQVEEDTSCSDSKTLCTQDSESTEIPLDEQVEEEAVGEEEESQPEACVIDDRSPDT
# T3 sequence (Q07343 whole entry): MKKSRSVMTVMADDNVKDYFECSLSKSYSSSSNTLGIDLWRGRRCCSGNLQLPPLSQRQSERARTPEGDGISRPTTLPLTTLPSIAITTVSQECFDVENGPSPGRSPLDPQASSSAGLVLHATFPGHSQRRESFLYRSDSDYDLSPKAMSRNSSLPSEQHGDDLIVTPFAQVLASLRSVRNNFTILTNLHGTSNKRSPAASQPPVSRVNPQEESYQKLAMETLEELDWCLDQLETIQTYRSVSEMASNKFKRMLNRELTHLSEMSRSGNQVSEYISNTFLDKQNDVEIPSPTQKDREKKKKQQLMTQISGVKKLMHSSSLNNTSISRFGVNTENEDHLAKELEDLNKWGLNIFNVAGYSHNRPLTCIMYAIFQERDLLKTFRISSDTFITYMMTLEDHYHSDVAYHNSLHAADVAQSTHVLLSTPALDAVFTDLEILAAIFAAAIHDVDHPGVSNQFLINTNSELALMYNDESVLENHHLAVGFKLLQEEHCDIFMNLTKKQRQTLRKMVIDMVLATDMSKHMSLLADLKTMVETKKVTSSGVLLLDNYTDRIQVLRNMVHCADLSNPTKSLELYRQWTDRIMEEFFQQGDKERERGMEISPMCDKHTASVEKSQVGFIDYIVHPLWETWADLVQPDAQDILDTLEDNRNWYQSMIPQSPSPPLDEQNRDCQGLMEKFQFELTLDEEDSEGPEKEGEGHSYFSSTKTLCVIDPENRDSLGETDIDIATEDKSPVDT
smiles,measurement,setting,value
[O-][S@+]1CCc2nc(N3CCC=C(c4ncc(Cl)cn4)CC3)nc(NC3(CO)CCC3)c21 [Compound 34],IC50,[1],< 0.01 µM
same,IC50,[2],13.6 µM
same,IC50,[3],< 0.01 µM
